One data set relates to IDH1-U251 cells. Briefly: In vitro cell uptake of [18F]SK60 in IDH1-U251 cells. In kind it is cell-based, Human. The conditions noted are these: 240 min incubation. As for the experimental part: Human U251 glioblastoma cells, stably transfected and overexpressing either wild-type IDH1 (IDH1-U251) or IDH1R132H (IDH1R132H–U251), were obtained from Jaqueline Kessler and Dirk Vordermark (Department of Radiotherapy, Martin Luther University Halle-Wittenberg, Halle/Saale, Germany). Cells were grown in RPMI 1640 medium (10% FCS), supplemented with puromycin, to ensure the cultivation of transfected cells only.
The IDH1-U251 and IDH1R132H–U251 cells were seeded at 4,00,000 cells/mL in a 24-well cell culture plate 1 day before the experiment. The medium was replaced by 400 μL/well, and 4 μL of a 100-x stock solution of the respective inhibitor in 10% DMSO or vehicle (10% DMSO) was added about 2 h before the experiment. The experiment was started with the addition of 100 μL of [ ^ 18 F]-SK60 (0.477 ± 0.002 MBq/mL; 4.86 ± 0.33 nM) diluted in cell culture medium per well, and the well plates were incubated in a humidified-air atmosphere incubator containing 5% CO2 at 37 °C for various times. The incubation was stopped by aspiration of the supernatant and washing the cell layers twice with prechilled PBS (500 μL/well). […] The concentrations of surface-bound and internalized activities per well were calculated as a percentage of the applied dose per well and normalized to the protein concentration per well (% AD/μg protein). […]

A further data set concerns the target P-gp efflux transporter (Mus musculus, UniProt P21447). As to the kind of experiment: Efflux transporter P-gp substrate study (PET, cyclosporine A pretreatment). As to conditions: cyclosporine A 50 mg/kg i.v. 30 min before radioligand.

Molecules are shown by their SMILES.

P-gp efflux transporter, sequence (P21447 whole entry): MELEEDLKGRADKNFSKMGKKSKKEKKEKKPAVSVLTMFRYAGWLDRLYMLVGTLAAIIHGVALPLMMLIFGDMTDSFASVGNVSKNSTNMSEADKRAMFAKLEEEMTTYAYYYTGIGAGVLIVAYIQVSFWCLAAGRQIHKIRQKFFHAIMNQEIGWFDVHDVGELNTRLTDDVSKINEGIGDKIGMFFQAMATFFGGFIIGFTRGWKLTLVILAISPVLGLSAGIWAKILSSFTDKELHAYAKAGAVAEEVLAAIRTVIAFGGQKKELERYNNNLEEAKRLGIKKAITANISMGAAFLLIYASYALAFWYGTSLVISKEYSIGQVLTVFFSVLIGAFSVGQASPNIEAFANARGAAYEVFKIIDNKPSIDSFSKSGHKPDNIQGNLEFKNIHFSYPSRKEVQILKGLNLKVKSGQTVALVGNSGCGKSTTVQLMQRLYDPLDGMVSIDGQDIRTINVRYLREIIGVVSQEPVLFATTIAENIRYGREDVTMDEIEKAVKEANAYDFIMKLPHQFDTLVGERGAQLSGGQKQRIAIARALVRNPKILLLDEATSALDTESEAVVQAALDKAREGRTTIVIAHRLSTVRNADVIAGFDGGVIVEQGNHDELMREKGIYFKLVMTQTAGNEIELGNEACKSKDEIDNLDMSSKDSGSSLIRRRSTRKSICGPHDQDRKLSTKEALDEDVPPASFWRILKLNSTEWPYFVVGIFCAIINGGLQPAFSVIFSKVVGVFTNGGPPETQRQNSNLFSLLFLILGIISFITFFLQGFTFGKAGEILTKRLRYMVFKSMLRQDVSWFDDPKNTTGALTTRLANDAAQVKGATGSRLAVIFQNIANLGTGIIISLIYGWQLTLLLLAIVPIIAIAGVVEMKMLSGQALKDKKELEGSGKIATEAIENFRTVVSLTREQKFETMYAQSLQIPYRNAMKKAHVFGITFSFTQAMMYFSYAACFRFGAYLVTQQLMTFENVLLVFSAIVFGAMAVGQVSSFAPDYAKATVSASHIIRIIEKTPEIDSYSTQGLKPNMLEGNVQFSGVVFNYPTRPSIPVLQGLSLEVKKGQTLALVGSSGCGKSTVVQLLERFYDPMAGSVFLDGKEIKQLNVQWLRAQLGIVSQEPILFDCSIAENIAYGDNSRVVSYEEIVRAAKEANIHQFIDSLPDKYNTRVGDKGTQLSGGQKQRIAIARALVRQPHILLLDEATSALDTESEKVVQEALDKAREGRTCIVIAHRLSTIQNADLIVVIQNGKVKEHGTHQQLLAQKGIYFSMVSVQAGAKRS
Procedure for P-gp efflux transporter: To investigate the role of P-gp, mice were treated with cyclosporine A, an inhibitor of the P-gp efflux transporter.
For the time of the experiments, female CD-1 mice (n = 4; 8–10 weeks; 37–40 g) were kept in a dedicated climatic chamber with free access to water and food under a 12:12 h dark: light cycle at a constant temperature (24 °C). The animals were anesthetized (Anaesthesia Unit U-410, agntho’s, Lidingö, Sweden) with isoflurane (2.0%, 300 mL/min) delivered in a 20% oxygen/80% air mixture (Gas Blender 100 Series, MCQ instruments, Rome, Italy) and their body temperature maintained at 37 °C with a thermal bed system. […] Each PET image was corrected for random coincidences, dead time, scatter, and attenuation (AC) based on a whole body (WB) MR scan. The reconstruction parameters for the list mode data were 3D-ordered subset expectation maximization (OSEM), 4 iterations, 6 subsets, energy window: 400–600 keV, coincidence mode: 1–5, ring difference: 81. The PET data were collected by a continuous WB scan during the entire investigation. […] The brain region was identified using the mouse brain atlas template Ma-Benveniste-Mirrione-FDG. The activity data are expressed as the SUVmean of the overall ROI.

In the data set on IDH1-U251 cells, `Cc1cccc(NC(=O)c2nn(Cc3ccc([18F])cc3)c3c2CN(C(=O)c2ccc[nH]2)CC3(C)C)c1` [[18F]SK60] yielded an internalized radioligand of 0.074 ± 0.023 % AD/μg protein and a surface-bound radioligand of 0.052 ± 0.029 % AD/μg protein. Besides, the “increase of brain uptake after cyclosporine A compared to vehicle” value at P-gp efflux transporter is “approximately 2.5 fold”.

The record behind these values is paper PMC12257540, “From Inhibitors to PET: SAR-Based Development of [^18F]SK60 for mIDH1 Imaging” (Journal of Medicinal Chemistry, 2025).
